Here are results for nine compounds from BindingDB's records for patent US20250268854 (C/O Vesper Bio, 2025).

Broadly, the Kd is the concentration at which binding is half-saturated. A low value points to a tighter complex. By IC50 is commonly meant the concentration that inhibits the measured activity by half. The low end stands for higher potency, the high end for lower potency.

Assay [1] has as its target T1, Sortilin (Homo sapiens, UniProt Q99523).
T1 sequence (Q99523 whole entry): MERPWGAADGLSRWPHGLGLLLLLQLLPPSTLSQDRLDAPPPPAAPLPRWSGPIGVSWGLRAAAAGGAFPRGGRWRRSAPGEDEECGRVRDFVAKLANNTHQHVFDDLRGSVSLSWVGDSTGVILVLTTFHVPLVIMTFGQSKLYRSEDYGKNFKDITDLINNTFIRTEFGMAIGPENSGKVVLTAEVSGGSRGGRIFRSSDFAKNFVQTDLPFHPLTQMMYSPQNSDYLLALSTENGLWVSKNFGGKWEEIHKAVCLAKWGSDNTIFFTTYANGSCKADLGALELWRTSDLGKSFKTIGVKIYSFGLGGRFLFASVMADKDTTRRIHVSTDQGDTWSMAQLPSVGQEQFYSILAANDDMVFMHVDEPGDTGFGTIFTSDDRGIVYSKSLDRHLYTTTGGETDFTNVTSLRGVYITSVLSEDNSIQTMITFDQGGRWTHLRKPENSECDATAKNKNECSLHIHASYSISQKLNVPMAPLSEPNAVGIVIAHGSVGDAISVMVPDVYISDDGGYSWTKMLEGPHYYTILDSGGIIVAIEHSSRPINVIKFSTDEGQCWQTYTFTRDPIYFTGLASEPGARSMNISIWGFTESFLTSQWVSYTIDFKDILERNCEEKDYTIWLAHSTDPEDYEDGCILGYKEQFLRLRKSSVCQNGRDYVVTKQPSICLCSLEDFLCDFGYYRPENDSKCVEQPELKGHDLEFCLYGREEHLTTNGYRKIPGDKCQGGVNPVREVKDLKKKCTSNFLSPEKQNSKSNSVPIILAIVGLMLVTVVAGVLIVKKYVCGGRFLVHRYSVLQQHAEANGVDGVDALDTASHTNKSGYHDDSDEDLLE
Description: Rapid Kinetics Assay. The method, then: Compounds were screened at a final assay concentration of 1 μM and a final DMSO concentration was 1%. To achieve this, compounds were diluted in DMSO from 10 mM stocks to 100 μM (100×final assay concentration) then diluted 1:100 in running buffer which contained no DMSO to establish a final assay concentration of compound of 1 μM and a final DMSO concentration of 1% [DMSO].Compounds and DMSO were mixed by plate shaking at 1000 rpm for 60 seconds using a Bioshake instrument.

The target in assay [2] is T1, Sortilin. Description: Neurotensin Scintillation Proximity Assay. The protocol: Compound affinity was determined by measuring the displacement of [3H]-neurotensin binding to h-Sortilin in SPA format. Total volume of 40 μl in 50 mM HEPES pH 7.4 assay buffer containing 100 mM NaCl, 2.0 mM CaCl2, 0.1% BSA and 0.1% Tween-20. […] Dose-response evaluation of compounds was performed with 8 concentrations of drugs (covering 3 decades). IC50 values were calculated by nonlinear regression using the sigmoid concentration-response (variable slope) using CDD Vault software. All values reported are average of at least 2 determinations.

`CC(C)(C)CC[C@H](NCc1ccncn1)C(=O)O` [US20250268854, Example 136] had a Kd at Sortilin [1] of 26.4 µM. Besides, the IC50 against Sortilin [2] worked out at 1.6 µM. In turn, `CC(C)(C)CC[C@H](NC1=NC2C=CC=CC2OC2C=CC=CC12)C(=O)O` (some centres undefined) [US20250268854, Example 20] gave an IC50 against Sortilin [2] of 1.49 µM. The same measure, in the same setting: then `CC(C)(C)CC[C@H](NCC1=CC(Cl)CC(Cl)=C1)C(=O)O` (some centres undefined) [US20250268854, Example 32], with 0.84 µM; and `CC(C)(C)CC[C@H](NCc1cccc(C#N)c1)C(=O)O` [US20250268854, Example 142], with 1.26 µM.

At Sortilin [1], `COc1cccc(CN[C@@H](CCC(C)(C)C)C(=O)O)c1F` [US20250268854, Example 34] registered a Kd of 0.492 µM. Also, the midpoint of inhibition against Sortilin [2], the IC50, lay at 0.72 µM. In turn, `COC1C=C(CN[C@@H](CCC(C)(C)C)C(=O)O)C=NC1` (some centres undefined) [US20250268854, Example 144] yielded a Kd on Sortilin [1] of 0.31 µM. Further, the IC50 on Sortilin [2] came out at 0.43 µM. Regarding `CC(C)(C)CC[C@H](NCc1cc2ccccc2[nH]1)C(=O)O` [US20250268854, Example 50], the IC50 against Sortilin [2] was found to be 0.61 µM.

Consider `C[C@@H](N[C@@H](CCC(C)(C)C)C(=O)O)c1cccc2c1ccn2C` [US20250268854, Example 63], for which the Kd on Sortilin [1] worked out at 0.0567 µM. On Sortilin [2], this compound showed an IC50 of 0.2 µM. For `C[C@H](N[C@@H](CCC(C)(C)C)C(=O)O)c1cccc2c1ccn2C` [US20250268854, Example 64] the same measures were 0.102 µM and 0.46 µM.
